From patent US11110182B2, “Multifunctional RNA nanoparticles and methods for treating cancer and therapeutic resistant cancer” (University of Cincinnati, priority 2016, dated 2021)
Strand notation (5' to 3'): a small letter for the sugar, then the base; units joined by * are phosphorothioate-linked, units joined directly phosphodiester-linked; [ ] holds rarer units or linkages, { } end groups; capitals alone tell only the bases. r = 2'-OH (RNA); f = 2'-fluoro

B1: pRNA-HER2apt-siScram: control pRNA nanoparticle with HER2 aptamer and scramble siRNA; strands p1 SEQ ID NO: 1, p2 SEQ ID NO: 2 (nucleic acid)
chain 1: GGAUCACGCUUCAUAUACAAAGGAUCAAUCAUGGCCAAUCUUAUUUCGCCCAUGACCUU
chain 2: GGUCAUGGGCGAAAUAAGAAAGGCCAUGUGUAUGUGGGGGGAGGACGAUGCGGUCUGCUGUGCUUGAUAUGCCCCAGACGACUCGCCCCCCACAUACUUUGUUGAUCCAAUGUAUAUGAAGCGUGAUCCUU
modifications: pRNA-HER2apt-siScram, p1; pRNA-HER2apt-siScram, p2

How the values were obtained:
[1] = tested on: BT474 orthotopic xenograft tumors; experiment: Anti-tumor therapy in BT474 orthotopic xenograft breast tumor mouse model; format: in vivo, athymic nude mice; conditions: single agent; for tumor lung metastasis: H&E staining of whole lung
Protocol: FIG. 5A) BT474 orthotopic xenograft mouse models were treated with control pRNA-HER2apt-siScram or pRNA-HER2apt-siMED1 (4 mg/Kg) once a week, in combination with vehicle or tamoxifen (TAM, 0.5 mg/mice/day) 5 days per week. Tumor sizes were measured every three days. FIG. 5B) After three weeks, mice were i.p. injected with D-luciferin, and representative in vivo images of BT474 tumors were recorded using IVIS Lumina imaging system. FIG. 5C) Average weight of the tumors excised at the end of the treatment, and FIG. 5D) the representative photos of tumors. FIG. 5E and FIG. 5F) MED1 expression in the BT474 tumors was examined using IHC staining and FIG. 5G) immunoblotting. FIG. 5H) The expression of Ki-67 in tumor tissues was analyzed using IHC staining, and FIG. 5I) the percentage of Ki-67 positive cells was counted. Scale bar: 100 μm.
FIG. 6A) Whole lung tissues were fixed, embedded, and sectioned for H&E staining, and FIG. 6B) metastasis foci in the whole lung tissues were then counted. Arrow indicates the metastasis foci. Scale bar: 100 μm. FIG. 6C) After digesting tumor tissues with trypsin and 0.1% collagenase, tumor cells were stained for CD44 and CD24, and FIG. 6D) analyzed for CD44^+CD24^−/low stem cell population using flow cytometry. FIG. 6E) Total RNA in the tumor tissues was extracted using TRIZOL reagent, and the expression of TFF-1, FIG. 6F) c-Myc, FIG. 6G) cyclin D1, and FIG. 6H) MMP-9 were determined by real-time PCR.
Migration and metastasis assay. The 8-μm-pore-size polycarbonate membrane, which separates the two chambers of a 6.5-mm Transwell (Costar), was coated with or without 1:8 DMEM-diluted Matrigel (Corning). Transwell assay was performed as previously described.^57 Briefly, BT474 cells were treated with pRNAs alone or together with 4-hydroxy-tamoxifen (4-OHT) for 48 h and starved with serum-free DMEM containing 0.2% BSA overnight. On the next day, cells were collected and 2×10^5 cells were seeded to the upper chamber of Transwell. The lower chamber was filled with 600 μL DMEM medium containing 10% FBS. After incubation at 37° C. for 24 h, cells on the membranes were fixed and stained with 0.1% crystal violet in 20% ethanol solution. Cells at top side of membranes were removed completely, and cells at the bottom side were examined with an Olympus SZX12 microscope and counted. • Mammosphere culture and breast cancer stem cell analyses. BT474 cells were treated with pRNAs for 48 h. Then, cells were suspended in DMEM/F12 medium supplemented with 1×B27 (Thermo Fisher), 20 ng/mL bFGF and 20 ng/mL EGF (R&D), and added into 24-well ultralow attachment plates. After treatment with or without 1 μM 4-OHT for 7 days, mammosphere formation was recorded using an Axiovert S100 TV inverted microscope (Zeiss). Xenograft tumor tissues were cut into small pieces and digested with trypsin and collagenase at 37° C. for 1 h, and tumor cells were collected and rinsed with pre-cold PBS. All cells were stained with FITC-conjugated anti-CD44 antibody and PE-conjugated anti-CD24 antibody (BD Pharmingen) in the dark on ice for 30 min. After resuspension with 0.5 mL PBS buffer, CD44^+/CD24^−/low cell population was analyzed by flow cytometry. • Orthotopic xenograft breast tumor mouse model, in vivo imaging and anti-tumor therapy. Six-week-old female athymic nude mice were purchased from Charles River Laboratories, and all animal procedures were performed under IACUC-approved protocols at the University of Cincinnati. Athymic nude mice were orthotopically injected with 1×10^7 BT474-luc cells mixed with matrigel into the fat pads of the forth pair of mammary glands. When the tumor sizes reached 100-150 mm^3, the mice were randomly divided into four groups (4/group) and intravenously (i.v.) injected with pRNAs (4 mg/Kg) once a week for three weeks. For tamoxifen treatments, 0.5 mg tamoxifen (Sigma) dissolved in sesame oil was intraperitoneally (i.p.) injected into mice 5 days a week for three weeks. […]

MED1 = MED1 protein level by western blotting in BT474 cells; format: cell-based, human; conditions: BT474, 48 h
Protocol: FIG. 3A) BT474 cells were incubated with 10 μg/mL control and pRNA-HER2apt-siMED1 nanoparticles for 48 h, and MED1 mRNA level was determined by real-time PCR. FIG. 3B) BT474 cells were incubated directly with (as indicated by -) or transfected with indicated pRNAs using lipofectamine 2000. At 48 h post treatment, MED1 protein levels were determined by western blotting. FIG. 3C) BT474 cells were treated with 10 μg/mL pRNA nanoparticles for 48 h and assayed for cell viability by MTT assay. FIG. 3D) Cells were treated as above and seeded for migration, and FIG. 3E) invasion transwell assays. Scale bar: 50 μm. FIG. 3F) After pRNA treatment for 48 h, the mRNA levels of ERα target genes TFF-1, FIG. 3G) c-Myc, and FIG. 3H) cyclin D1 in BT474 cells were determined by real-time PCR.
FIG. 7A) Six HER2-targeting RNA aptamers were selected from previous literatures, and their secondary structures were predicted using Srna-fold software. FIG. 7B) Six p2 strands containing the six different HER2 RNA aptamers were synthesized and annealed with the same p1 strand to generate six different pRNA-HER2apt-MED1 siRNA nanoparticles, respectively, followed by examination using 8% native PAGE gel electrophoresis. FIG. 7C) BT474 cells were treated with above pRNA nanoparticles for 48 h, and then MED1 protein level was determined by western blotting. […] FIG. 7D) 1 μg pRNA nanoparticles were incubated with recombinant Dicer enzyme (Genlantis) at 37° C. for 12 h, the product was separated by 8% native PAGE gel.
FIG. 9A) BT474 cells were treated with different concentrations of pRNA nanoparticles as indicated for 48 h. After that, MED1 protein level was determined by western blots, and FIG. 9B) the cell viability was determined by MTT assay.
Cell culture. Human breast cancer luciferase-overexpressing BT474 and MDA-MB-231 cells were maintained in DMEM medium (Hyclone, Thermo Scientific) supplemented with 10% fetal bovine serum (FBS, Sigma) and 1% penicillin/streptomycin (Corning) at 37° C. in a humidified atmosphere with 5% CO2.^53 • Generation of pRNA nanoparticles. The two strands of pRNA were synthesized with the DNA templates, which were amplified with overlapping primers (Sigma) by PCR methods, using a T7 promoter-controlled in vitro RNA transcription system as previously described^33 (Table 1). All the CTP and UTP used for synthesis of the pRNA nanoparticles were 2′-fluoro modified, except the control unmodified pRNA nanoparticles used in the stability assays. Following an overnight transcription at 37° C., RNA strands were purified using RNA clean and concentrator kits (ZYMO research) and examined by 8 M urea denatured 8% PAGE gel. pRNA nanoparticles were assembled by mixing the equal molar amounts of p1 and p2 strands and gradually annealing from 90° C. to 20° C. in 1×RNA annealing buffer containing 50 mM Tris-HCl (pH 7.5), 50 mM NaCl and 1 mM EDTA on a PCR machine. […] The hydrodynamic diameter and Tm value of pRNA nanoparticles were determined using dynamic light scattering and TGGE assay, respectively, as previously described.^54 The AFM imaging of the pRNA nanoparticles was performed at the University of Nebraska Medical Center imaging facility as previously reported.^55 Briefly, the pRNA nanoparticles (5 μL) were deposited on APS modified mica ^56 for a total of 2 min of incubation time. […]

| Molecule | tumor lung metastasis [1] | tumor growth ([1]; pRNA 4 mg/Kg i.v. once a week or tamoxifen 0.5 mg i.p. 5 days a week, three weeks) | efficiency of MED1 knockdown among six HER2 RNA aptamers in pRNA nanoparticles (MED1) |
| --- | --- | --- | --- |
| CC/C(=C(\c1ccccc1)c1ccc(OCCN(C)C)cc1)c1ccccc1 [tamoxifen, reference compound] | multiple tumor lung metastasis foci | only weakly inhibited |  |
| B3 aptamer: HER2-targeting RNA aptamer B3 (SEQ ID NO: 9), tested within pRNA-HER2apt-MED1 siRNA nanoparticles (rGrGrGrArGrGrAfCrGrAfUrGfCrGrGfUfCfUrGfCfUrGfUrGfCfUfUrGrAfUrAfUrGfCfCfCfCrArGrAfCrGrAfCfUfCrGfCfCfC; part of pRNA three-way junction nanoparticle with siRNA) |  |  | highest efficiency |
| B1 | multiple tumor lung metastasis foci |  |  |
